Test results from patent US20070082880A1 (priority 2005, published 2007).

Target: T1, human PKCθ full length enzyme (Homo sapiens, UniProt Q04759)
T1 construct: human PKCθ full length enzyme (Panvera Catalog No. P2996); purchased Panvera P2996
Experiment: PKCθ IMAP Assay
Type: biochemical
Settings: average value when one or more samples were tested; ATP 6 uM, PKCθ 1 nM
Experimental: The materials used include the following: human PKCθ full length enzyme (Panvera Catalog No. P2996); substrate peptide: 5FAM-[…]-OH (Molecular Devices, RP7032); ATP (Sigma Cat # A2383); DTT (Pierce, 20291); 5× kinase reaction buffer (Molecular Devices, R7209); 5× binding buffer A (Molecular Devices, R7282), 5× binding buffer B (Molecular Devices, R7209); IMAP Beads (Molecular Devices, R7284); and 384-well plates (Corning Costar, 3710).
The reaction buffer was prepared by diluting the 5× stock reaction buffer and adding DTT to obtain a concentration of 3.0 mM. The binding buffer was prepared by diluting the 5× binding buffer A. A master mix solution was prepared using a 90% dilution of the reaction buffer containing 2×ATP (12 uM) and 2× peptide ([…]). […] The final concentration of compound was 2× and 10% DMSO. DMSO was added to the rest of the master mix to increase the concentration to 10%. 10 ul of the master mix containing 10% DMSO was added to the rest of the wells on the plate except the 2nd column. 20 ul was transferred from the first column to the 2nd column. The compounds were serially diluted in 2:1 ratio starting from the 2nd column. A 2× (2 nM) PKCθ solution was made in the reaction buffer. 10 ul of the PKCθ solution was added to every well to achieve these final concentrations: PKCθ—1 nM; ATP—6 uM; peptide—100 nM; DMSO—5%. Samples were incubated for 25 minutes at room temperature. The binding reagent was prepared by diluting the beads in 1× binding buffer to 800:1. 50 ul of the binding reagent was added to every well and incubated for 20 minutes. FP was measured using Envision2100 (PerkinElmer Life Sciences). Wells with no ATPs and wells with no enzymes were used as controls.

T1 sequence (Q04759 whole entry): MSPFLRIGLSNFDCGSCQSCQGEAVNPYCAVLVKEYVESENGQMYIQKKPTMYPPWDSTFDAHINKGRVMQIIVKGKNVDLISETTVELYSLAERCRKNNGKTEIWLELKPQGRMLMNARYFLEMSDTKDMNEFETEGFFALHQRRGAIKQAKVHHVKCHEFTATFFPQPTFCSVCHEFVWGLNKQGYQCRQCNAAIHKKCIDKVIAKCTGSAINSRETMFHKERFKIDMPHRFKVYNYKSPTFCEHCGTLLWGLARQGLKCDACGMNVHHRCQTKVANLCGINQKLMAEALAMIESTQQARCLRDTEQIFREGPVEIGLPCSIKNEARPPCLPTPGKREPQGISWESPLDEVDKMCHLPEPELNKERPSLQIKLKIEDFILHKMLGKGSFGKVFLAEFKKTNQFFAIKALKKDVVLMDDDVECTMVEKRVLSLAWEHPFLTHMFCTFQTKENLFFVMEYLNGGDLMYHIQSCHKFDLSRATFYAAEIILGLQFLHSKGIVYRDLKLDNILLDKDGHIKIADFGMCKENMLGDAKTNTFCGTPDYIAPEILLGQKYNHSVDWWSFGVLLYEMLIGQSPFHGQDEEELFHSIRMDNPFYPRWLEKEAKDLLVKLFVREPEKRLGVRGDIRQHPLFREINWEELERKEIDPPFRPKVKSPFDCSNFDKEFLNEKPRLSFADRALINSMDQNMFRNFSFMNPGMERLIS

In the case of `CS(=O)(=O)Nc1ccc(-c2cc3c(Nc4ccc5[nH]ccc5c4)c(C#N)cnc3s2)cc1` [Compound 235, N-{4-[5-cyano-4-(1H-indol-5-ylamino)thieno[2,3-b]pyridin-2-yl]phenyl}methanesulfonamide], the IC50 is reported as 1200 nM.

With `Cc1c(Nc2c(C#N)cnc3sc(C4CCN(Cc5ccccc5)C4)cc23)ccc2[nH]ccc12` (centres unmarked) [Compound 479, 2-(1-benzylpyrrolidin-3-yl)-4-[(4-methyl-1H-indol-5-yl)amino]thieno[2,3-b]pyridine-5-carbonitrile] the IC50 was 1970 nM.

Compound `COc1ccc(/C=C/c2cc3c(Nc4ccc5[nH]ccc5c4)c(C#N)cnc3s2)cc1` [Compound 405, 4-(1H-indol-5-ylamino)-2-[(E)-2-(4-methoxyphenyl)vinyl]thieno[2,3-b]pyridine-5-carbonitrile] has an IC50 of 477 nM.

`N#Cc1cnc2sc(/C=C/Cc3ccccc3)cc2c1Nc1ccc2[nH]ccc2c1` [Compound 409, 4-(1H-indol-5-ylamino)-2-[(1E)-3-phenylprop-1-en-1-yl]thieno[2,3-b]pyridine-5-carbonitrile] was tested, and the IC50 was 3700 nM.

In the case of `CCCC/C=C/c1cc2c(Nc3ccc4[nH]ccc4c3)c(C#N)cnc2s1` [Compound 411, 2-[(1E)-hex-1-en-1-yl]-4-(1H-indol-5-ylamino)thieno[2,3-b]pyridine-5-carbonitrile], the IC50 is reported as 2550 nM.

`Cc1c(Nc2c(C#N)cnc3sc(-c4ccc(C(=O)NCCN(C)C)cc4)c(C)c23)ccc2[nH]ccc12` [Compound 430, 4-{5-cyano-3-methyl-4-[(4-methyl-1H-indol-5-yl)amino]thieno[2,3-b]pyridin-2-yl}-N-[2-(dimethylamino)ethyl]benzamide] was tested, and the IC50 was 116 nM.

For `Cc1c(Nc2c(C#N)cnc3sc(/C=C/C(=O)NN4CCCC4)cc23)ccc2[nH]ccc12` [Compound 314, (2E)-3-{5-cyano-4-[(4-methyl-1H-indol-5-yl)amino]thieno[2,3-b]pyridin-2-yl}-N-pyrrolidin-1-ylacrylamide], the IC50 was 375 nM.

`C=C(c1ccccc1)c1cc2c(Nc3ccc4[nH]ccc4c3)c(C#N)cnc2s1` [Compound 410, 4-(1H-indol-5-ylamino)-2-(1-phenylvinyl)thieno[2,3-b]pyridine-5-carbonitrile] was tested, and the IC50 was 1050 nM.

For `Cc1c(Nc2c(C#N)cnc3sc(/C=C/C(=O)NN(C)C)cc23)ccc2[nH]ccc12` [Compound 313, (2E)-3-{5-cyano-4-[(4-methyl-1H-indol-5-yl)amino]thieno[2,3-b]pyridin-2-yl}-N′,N′-dimethylacrylohydrazide], the IC50 was 104 nM.

For `Cc1c(Nc2c(C#N)cnc3sc(C(=O)Nc4cccnc4)cc23)ccc2[nH]ccc12` [Compound 263, 5-cyano-4-[(4-methyl-1H-indol-5-yl)amino]-N-pyridin-3-ylthieno[2,3-b]pyridine-2-carboxamide], the IC50 was 71 nM.

With `CS(=O)(=O)c1ccc(-c2cc3c(Nc4ccc5[nH]ccc5c4)c(C#N)cnc3s2)cc1` [Compound 234, 4-(1H-indol-5-ylamino)-2-[4-(methylsulfonyl)phenyl]thieno[2,3-b]pyridine-5-carbonitrile] the IC50 was 130 nM.

`CCOc1ccc2cc(-c3cc4c(Nc5ccc6[nH]ccc6c5C)c(C#N)cnc4s3)ccc2c1` [Compound 385, 2-(6-ethoxy-2-naphthyl)-4-[(4-methyl-1H-indol-5-yl)amino]thieno[2,3-b]pyridine-5-carbonitrile] showed an IC50 of over 30000 nM.

Compound `N#Cc1cnc2sc(-c3ccc(S(=O)(=O)NC4CCCCC4)cc3)cc2c1Nc1ccc2[nH]ccc2c1` [Compound 233, 4-[5-cyano-4-(1H-indol-5-ylamino)thieno[2,3-b]pyridin-2-yl]-N-cyclohexylbenzenesulfonamide] has an IC50 of 40000 nM.

Compound `CC(C)c1c(-c2cccc(CN(C)C)c2)sc2ncc(C#N)c(Nc3ccc4[nH]ccc4c3)c12` [Compound 516, 2-{3-[(dimethylamino)methyl]phenyl}-4-(1H-indol-5-ylamino)-3-isopropylthieno[2,3-b]pyridine-5-carbonitrile] has an IC50 of 1210 nM.
